PubChem BioAssay AID1918993 (Molecular Pharmacology Branch, DTP, NCI, 2023)

Tested on: 233499-124-R-J3-PDC complex spheroid growth
Assay: Anticancer human tumor 233499-124-R-J3-PDC patient-derived colon adenocarcinoma cell line growth inhibition [AhR]
Details: for IC50: curve of first compound; for viability, T/C: stronger effect = lower value
Outline: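 Complex tumor spheroids co-cultured with HUVEC and human MSC stroma; AhR antagonists tested in combination with standard-of-care and investigational agents. Top concentration at or near clinical Cmax (else 10 microM), half-log dilutions; growth expressed as percent test/control.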

[1] = second compound 0.1 µM, first compound 0.0316 µM
[2] = second compound 0.1 µM, first compound 0.1 µM
[3] = second compound 0.1 µM, first compound 0.316 µM
[4] = second compound 0.1 µM, first compound 1 µM
[5] = second compound 0.1 µM, first compound 3.16 µM
[6] = second compound 0.1 µM, first compound 10 µM
[7] = second compound 0.316 µM, first compound 0.0316 µM
[8] = second compound 0.316 µM, first compound 0.1 µM
[9] = second compound 0.316 µM, first compound 0.316 µM
[10] = second compound 0.316 µM, first compound 1 µM
[11] = second compound 0.316 µM, first compound 3.16 µM
[12] = second compound 0.316 µM, first compound 10 µM
[13] = second compound 1 µM, first compound 0.0316 µM
[14] = second compound 1 µM, first compound 0.1 µM
[15] = second compound 1 µM, first compound 0.316 µM
[16] = second compound 1 µM, first compound 1 µM
[17] = second compound 1 µM, first compound 3.16 µM
[18] = second compound 1 µM, first compound 10 µM
[19] = second compound 3.16 µM, first compound 0.0316 µM
[20] = second compound 3.16 µM, first compound 0.1 µM
[21] = second compound 3.16 µM, first compound 0.316 µM
[22] = second compound 3.16 µM, first compound 1 µM
[23] = second compound 3.16 µM, first compound 3.16 µM
[24] = second compound 3.16 µM, first compound 10 µM
[25] = second compound 10 µM, first compound 0.0316 µM
[26] = second compound 10 µM, first compound 0.1 µM
[27] = second compound 10 µM, first compound 0.316 µM
[28] = second compound 10 µM, first compound 1 µM
[29] = second compound 10 µM, first compound 3.16 µM
[30] = second compound 10 µM, first compound 10 µM
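Also: spheroids exposed to agents for seven days before reading.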

## CC(C)c1c(-c2ccccc2)nc2c(C#N)c[nH]n2c1=O + CC(CO)NC(=O)c1cc(-c2ccc(Cl)cc2)nn(-c2cnn(C)c2)c1=O
Second compound 0.1 µM
  IC50: > 10 µM
Second compound 0.316 µM
  IC50: > 10 µM
Second compound 1 µM
  IC50: > 10 µM
Second compound 3.16 µM
  IC50: > 10 µM
Second compound 10 µM
  IC50: > 10 µM
[1]
  viability, T/C: 100%
[2]
  viability, T/C: 97.7%
[3]
  viability, T/C: 99.6%
[4]
  viability, T/C: 101%
[5]
  viability, T/C: 104%
[6]
  viability, T/C: 105%
[7]
  viability, T/C: 113%
[8]
  viability, T/C: 109%
[9]
  viability, T/C: 89.5%
[10]
  viability, T/C: 93.7%
[11]
  viability, T/C: 96.2%
[12]
  viability, T/C: 102%
[13]
  viability, T/C: 107%
[14]
  viability, T/C: 106%
[15]
  viability, T/C: 98%
[16]
  viability, T/C: 102%
[17]
  viability, T/C: 104%
[18]
  viability, T/C: 100%
[19]
  viability, T/C: 101%
[20]
  viability, T/C: 95.3%
[21]
  viability, T/C: 94.5%
[22]
  viability, T/C: 96.8%
[23]
  viability, T/C: 92.4%
[24]
  viability, T/C: 87.8%
[25]
  viability, T/C: 98.2%
[26]
  viability, T/C: 82.5%
[27]
  viability, T/C: 93.5%
[28]
  viability, T/C: 86.3%
[29]
  viability, T/C: 87.4%
[30]
  viability, T/C: 96.6%

## CC1COCCN1c1cc(-c2ccnn2C)c2ccnc(-c3ccn[nH]3)c2n1 (stereo not given) + CC(CO)NC(=O)c1cc(-c2ccc(Cl)cc2)nn(-c2cnn(C)c2)c1=O
Second compound 0.1 µM
  IC50: 0.516 µM
Second compound 0.316 µM
  IC50: 0.609 µM
Second compound 1 µM
  IC50: 0.547 µM
Second compound 3.16 µM
  IC50: 0.65 µM
Second compound 10 µM
  IC50: 0.23 µM
Second compound 0.1 µM, first compound 0.00316 µM
  viability, T/C: 97.6%
Second compound 0.1 µM, first compound 0.01 µM
  viability, T/C: 95.3%
[1]
  viability, T/C: 89.1%
[2]
  viability, T/C: 83.9%
[3]
  viability, T/C: 63%
[4]
  viability, T/C: 31.7%
Second compound 0.316 µM, first compound 0.00316 µM
  viability, T/C: 90.3%
Second compound 0.316 µM, first compound 0.01 µM
  viability, T/C: 102%
[7]
  viability, T/C: 90.3%
[8]
  viability, T/C: 84.9%
[9]
  viability, T/C: 68.1%
[10]
  viability, T/C: 36.5%
Second compound 1 µM, first compound 0.00316 µM
  viability, T/C: 106%
Second compound 1 µM, first compound 0.01 µM
  viability, T/C: 101%
[13]
  viability, T/C: 97.9%
[14]
  viability, T/C: 82.5%
[15]
  viability, T/C: 60.8%
[16]
  viability, T/C: 38.2%
Second compound 3.16 µM, first compound 0.00316 µM
  viability, T/C: 81.9%
Second compound 3.16 µM, first compound 0.01 µM
  viability, T/C: 86.9%
[19]
  viability, T/C: 87.2%
[20]
  viability, T/C: 85.6%
[21]
  viability, T/C: 60.8%
[22]
  viability, T/C: 43.6%
Second compound 10 µM, first compound 0.00316 µM
  viability, T/C: 83.3%
Second compound 10 µM, first compound 0.01 µM
  viability, T/C: 90%
[25]
  viability, T/C: 80.8%
[26]
  viability, T/C: 59%
[27]
  viability, T/C: 49%
[28]
  viability, T/C: 33.4%

## COc1ccc([C@@H](O)c2cc(-c3ncnc4cc(N5CCOCC5)ccc34)c(F)cc2Cl)nn1 + CC(CO)NC(=O)c1cc(-c2ccc(Cl)cc2)nn(-c2cnn(C)c2)c1=O
Second compound 0.1 µM
  IC50: > 10 µM
Second compound 0.316 µM
  IC50: > 10 µM
Second compound 1 µM
  IC50: > 10 µM
Second compound 3.16 µM
  IC50: > 10 µM
Second compound 10 µM
  IC50: > 10 µM
[1]
  viability, T/C: 104%
[2]
  viability, T/C: 96%
[3]
  viability, T/C: 88.8%
[4]
  viability, T/C: 87%
[5]
  viability, T/C: 92.8%
[6]
  viability, T/C: 84.7%
[7]
  viability, T/C: 108%
[8]
  viability, T/C: 99.1%
[9]
  viability, T/C: 89.7%
[10]
  viability, T/C: 83%
[11]
  viability, T/C: 75.6%
[12]
  viability, T/C: 75.3%
[13]
  viability, T/C: 96.2%
[14]
  viability, T/C: 86.5%
[15]
  viability, T/C: 76.8%
[16]
  viability, T/C: 86.4%
[17]
  viability, T/C: 73.9%
[18]
  viability, T/C: 74.8%
[19]
  viability, T/C: 98.3%
[20]
  viability, T/C: 86.3%
[21]
  viability, T/C: 84.7%
[22]
  viability, T/C: 88.2%
[23]
  viability, T/C: 69.5%
[24]
  viability, T/C: 78.2%
[25]
  viability, T/C: 90.9%
[26]
  viability, T/C: 83.8%
[27]
  viability, T/C: 66.8%
[28]
  viability, T/C: 75.2%
[29]
  viability, T/C: 77%
[30]
  viability, T/C: 76.9%

## O=C(C=Cn1cnc(-c2cc(C(F)(F)F)cc(C(F)(F)F)c2)n1)NNc1cnccn1 + CC(CO)NC(=O)c1cc(-c2ccc(Cl)cc2)nn(-c2cnn(C)c2)c1=O
Second compound 0.1 µM
  IC50: > 3 µM
Second compound 0.316 µM
  IC50: > 3 µM
Second compound 1 µM
  IC50: > 3 µM
Second compound 3.16 µM
  IC50: > 3 µM
Second compound 10 µM
  IC50: 2.59 µM
Second compound 0.1 µM, first compound 0.00949 µM
  viability, T/C: 92.4%
Second compound 0.1 µM, first compound 0.03 µM
  viability, T/C: 102%
Second compound 0.1 µM, first compound 0.0949 µM
  viability, T/C: 92.2%
Second compound 0.1 µM, first compound 0.3 µM
  viability, T/C: 95.1%
Second compound 0.1 µM, first compound 0.949 µM
  viability, T/C: 82.3%
Second compound 0.1 µM, first compound 3 µM
  viability, T/C: 59.6%
Second compound 0.316 µM, first compound 0.00949 µM
  viability, T/C: 93.8%
Second compound 0.316 µM, first compound 0.03 µM
  viability, T/C: 89.6%
Second compound 0.316 µM, first compound 0.0949 µM
  viability, T/C: 101%
Second compound 0.316 µM, first compound 0.3 µM
  viability, T/C: 99.7%
Second compound 0.316 µM, first compound 0.949 µM
  viability, T/C: 58.9%
Second compound 0.316 µM, first compound 3 µM
  viability, T/C: 68.4%
Second compound 1 µM, first compound 0.00949 µM
  viability, T/C: 79.7%
Second compound 1 µM, first compound 0.03 µM
  viability, T/C: 101%
Second compound 1 µM, first compound 0.0949 µM
  viability, T/C: 93.9%
Second compound 1 µM, first compound 0.3 µM
  viability, T/C: 76.5%
Second compound 1 µM, first compound 0.949 µM
  viability, T/C: 59.1%
Second compound 1 µM, first compound 3 µM
  viability, T/C: 56.1%
Second compound 3.16 µM, first compound 0.00949 µM
  viability, T/C: 91.3%
Second compound 3.16 µM, first compound 0.03 µM
  viability, T/C: 97%
Second compound 3.16 µM, first compound 0.0949 µM
  viability, T/C: 84.9%
Second compound 3.16 µM, first compound 0.3 µM
  viability, T/C: 99%
Second compound 3.16 µM, first compound 0.949 µM
  viability, T/C: 62.7%
Second compound 3.16 µM, first compound 3 µM
  viability, T/C: 56.6%
Second compound 10 µM, first compound 0.00949 µM
  viability, T/C: 93.1%
Second compound 10 µM, first compound 0.03 µM
  viability, T/C: 87.2%
Second compound 10 µM, first compound 0.0949 µM
  viability, T/C: 71.8%
Second compound 10 µM, first compound 0.3 µM
  viability, T/C: 106%
Second compound 10 µM, first compound 0.949 µM
  viability, T/C: 82%
Second compound 10 µM, first compound 3 µM
  viability, T/C: 44.5%
